Measured values: patent publication US20020077322A1, “Protection of neurons against glutamate-induced damage in glaucoma and other conditions” (priority 2000, published 2002)

Experiments:
Type in all cases: in vivo, C57/BL6 mice
[1] = tested on: retinal ganglion cells; experiment: Intravitreal NMDA with or without co-injected WIN 55,212-2; counts of surviving cells in the retinal ganglion cell layer (Example 1)
Experimental: (§1) Experiments were performed on adult C57/BL6 mice of an average of 4 months, weighing 15-25 g. Animals were given food and water ad libitum. All studies were conducted in accordance with the principles and procedures outlined in the National Institute of Health (NIH) Guide for the Care and Use of Laboratory Animals.
Three sterile solutions were administered by intravitreal injection: balanced saline solution, NMDA (Sigma) and NMDA plus WIN 55,212-2 (Sigma). The NMDA solution was comprised of 320 mM NMDA in balanced saline solution (net of 160 nmol of NMDA injected per eye). The WIN solution contained 0.5 mM WIN 55,212-2 in the NMDA solution using a DMSO vehicle (less than 0.1% of solution) to carry WIN (net of 0.25 nmol of WIN injected per eye).
(§2) Intravitreal Injections Mice were anaesthetized by intraperitoneal injection of 0.017 ml/g body weight of a solution containing 1.75% tribromoethanol and 1.75% tertiary amyl alcohol. A topical application of 0.5% proparacaine hydrochloride was administered prior to intravitreal injections. A small incision was made with a 22-gauge needle in the dorsal limbus, through the conjunctiva and sclera. A Hamilton syringe was passed through this incision at a 40 to 50 degree angle to the equator to administer the solution. All eyes were injected with 0.5 μl of solution. All procedures were performed under microscopy. Occasionally this procedure produced cataracts in mice (less than 5%) due to damage to the lens with the syringe. These mice were not used in the analysis.
(§3) Tissue Preparation Flat mount preparations of the retinae and counts of cells in the retinal ganglion cell layers were performed to evaluate cell loss. Ten days after intravitreal injections, animals were euthanized by an intraperitoneal overdose injection of pentobarbital. Animals were immediately perfused with 4% paraformaldehyde, and the eyes enucleated. The retinae were dissected and mounted onto gelatinized slides, ganglion cell layer up. Several radial cuts were made at the periphery, and the surface was cleared and flattened with a fine brush (camel hair, size 0). The flat mounted retinae were immersed overnight in a solution containing 10% formaldehyde and 90% alcohol. The sections were subsequently dehydrated and stained with 0.5-1% cresyl violet and enclosed with coverslips.
Morphometric Analysis (Quantification of Cell Loss in the Retinal Ganglion Cell Layer) The ganglion cell layer was imaged at 400×and cells were counted within 70×70 um grids. […] Quandrant counts from each retina were averaged to give the value for each eye. Morphologically distinguishable glial cells and vascular endothelial cells were excluded from the cell count, but no attempt was made to distinguish between ganglion and amacrine cells. […]

[2] = tested on: retinal ganglion cells; experiment: Topical WIN55212-2 after intravitreal NMDA; counts of surviving retinal ganglion cells (Example 2)
Experimental: as §1
Two sterile solutions were administered by intravitreal injection: balanced saline solution, and NMDA (Sigma). The NMDA solution was comprised of 320 mM NMDA in balanced saline solution (net of 160 nmol of NMDA injected per eye).
as §2, with “Injections:” for “Injections”, “0.5μl” for “0.5 μl”
Topical Application of cannabinoid: A topical application solution of WIN55212-2 (Sigma) was prepared in 2-hydroxypropyl-β-cyclodextrin (Sigma). This solution contained 2.4 mg of WIN55212-2 in 1 ml 2-hydroxypropyl-β-cyclodextrin.
10 μl of this WIN55212-2 solution was applied to the anterior surface of the eye. In the experiments described, it was applied three times daily on one eye only. The applications of the WIN solution began one day after the NMDA injections were made, to allow time for the surface of the eye to heal, and the topical applications were made for 9 days. Thus, while each eye received the NMDA injections, only one eye of each animal had the WIN solution applied onto it.
as §3, with “Preparation:” for “Preparation”, “The flat mounted retinae were immersed overnight in a solution containing 10% formaldehyde and 90% alcohol. The sections were subsequently dehydrated and stained with 0.5-1% cresyl violet and enclosed with coverslips.” left out
Morphometric Analysis: The ganglion cell layer was imaged at 400X and 630X and cells were counted within 120×120 μm square grids. […]

[3] = tested on: retinal ganglion cells; experiment: Effect of cannabinoid antagonists on WIN protection of NMDA-treated retinal ganglion cells (Example 3); settings: preliminary tests
Experimental: A topical application of 0.5% proparacaine hydrochloride was administered prior to intravitreal injections. A small incision was made with a 22-gauge needle in the dorsal limbus, through the conjunctiva and sclera. A Hamilton syringe was passed through this incision at a 40 to 50 degree angle to the equator to administer the solution. All eyes were injected with 0.5 μl of solution. All procedures were performed under microscopy. […] These mice were not used in the analysis.
Tissue Preparation: Flat mount preparations of the retinae and counts of cells in the retinal ganglion cell layers were performed to evaluate cell loss. Ten days after intravitreal injections, animals were euthanized by an intraperitoneal overdose injection of pentobarbital. Animals were immediately perfused with 4% paraformaldehyde, and the eyes enucleated. The retinae were dissected and mounted onto gelatinized slides, ganglion cell layer up. […]

[4] = single intravitreal application, 0.25 nmol WIN per eye with NMDA, 10 days
[5] = intravitreal, 160 nmol NMDA per eye, 10 day period, vs saline eye

## Cc1c(C(=O)c2cccc3ccccc23)c2cccc3c2n1[C@H](CN1CCOCC1)CO3 [WIN]
[1]; FIG. 5 left pair of bars, data taken from Example 1
  increase in number of surviving ganglion cells (NMDA+WIN vs NMDA eye): by a factor of two
[1]; [4]
  diminution of NMDA-induced ganglion cell loss: 80%
  resulting loss of ganglion cells with NMDA plus WIN: 30%
[2]; NMDA-treated retina, unilateral topical WIN55212-2
  excitotoxic damage in ganglion cell layer, photomicrographs (FIG. 4): ameliorated the excitotoxic damage
[2]; WIN applied topically to the other eye, presumably systemic delivery
  retinal ganglion cells protected, contralateral eye (no WIN directly applied): about 25%
[2]; topical WIN on days 2-9, 10 day period
  resulting loss of ganglion cells, NMDA plus topical WIN, treated eye: 30%

## CN[C@H](CC(=O)O)C(=O)O [NMDA, N-methyl-D-aspartate]
[1]; [5]
  loss of retinal ganglion cells caused by NMDA: 70%
[2]; [5]
  loss of retinal ganglion cells caused by NMDA: 70%

## COc1ccc(C(=O)c2c(C)n(CCN3CCOCC3)c3cc(I)ccc23)cc1 [AM 630]
[3]
  cell counts with CB2 antagonist in combination with WIN and NMDA: same cell counts as the WIN+NMDA eye
